Measurements published in publication PMC10608985, “Retention Behavior of Anticancer Thiosemicarbazides in Biomimetic Chromatographic Systems and In Silico Calculations” (Molecules, 2023).

How the values were obtained:
[1] = HPLC lipophilicity on cholesterol (Chol) stationary phase; type: physicochemical; conditions: pH 7.4; for Log k Chol: Table S3; for log kw Chol: intercept, linear extrapolation to water; for log kw Chol / -S Chol: MeOH/20 mM acetate buffer; for -S Chol: slope of Soczewiński–Wachtmeister equation
Method: (§1) For the evaluation of the compounds the following stationary phases were used: C-18; biomimetic, IAM; cholesterol (Chol); immobilized proteins HSA and AGP. For the lipophilicity determination, MeOH (C-18, Chol) or ACN (IAM) were applied as the organic modifiers. The measurements were performed at pH 7.4 of the mobile phase. The regular changes in the retention of all solutes used as organic modifier content in the mobile phase on three studied stationary phases were found. It is expressed by the Soczewiński–Wachtmeister Equation (1):log k = log kw + S (% organic modifier)(1) where log kw—the intercept; S—the slope of regression curve. […] Log kw as well as S parameters are commonly applied as lipophilicity descriptors.
(§2) HPLC measurements were performed using a liquid chromatograph Knauer (Knauer, Berlin, Germany) with a dual pump, a 20 µL simple injection valve, and a UV–visible detector. The compounds were detected under UV light at 280 nm at room temperature. The retention time of an unretained solute (t0) was determined by the injection of a small amount of citric acid dissolved in water.
Cogent 4 UDC Cholesterol (150 × 2.1 mm, 4 µm) MicroSolv Technology Corporation (Leland, NC, USA) column was used. The mobile phase consisted of different volume mixtures of MeOH as the organic modifier and 20 mM acetate buffer as the aqueous phase, to obtain pH = 7.4. The concentrations of the organic modifier were in the range from 0.3 to 0.8 (v/v) with step 0.05 or 0.1 (Table S3 in the Supplementary Materials). The flow rate was 0.35 mL × min^−1.

[2] = HPLC lipophilicity on IAM (immobilized artificial membrane, phosphatidylcholine) stationary phase; type: physicochemical; conditions: pH 7.4; for Log k IAM: Table S2; for log kw IAM: intercept, linear extrapolation to water; for log kw IAM / -S IAM: ACN/20 mM phosphate buffer; for -S IAM: slope of Soczewiński–Wachtmeister equation
Method: as §1, §2
A Rexchrom IAM.PC.DD2 (12 μm, 100 × 4.6 mm, 300 Å) (Regis Technologies, Morton Grove, IL, USA) column was used as the stationary phase. The compounds were dissolved at a concentration of 0.5 mg × mL^−1 in MeOH. The mobile phases consisted of different volume fractions of ACN and 20 mM phosphate buffer; the aqueous phase maintained a pH = 7.4 (0.02 M KH2PO4, Na2HPO4 and 0.15 M KCl). The acetonitrile concentration ranged from 0.05 to 0.4 (v/v), depending on the structure of compound, at 0.05 intervals (Table S2 in the Supplementary Materials). The flow rate was 1 mL × min^−1.

[3] = molecular target: T1, human serum albumin (HSA) (Homo sapiens, UniProt P02768); test: HPLC on immobilized HSA column, affinity and % plasma–protein binding; type: in vitro ADME; conditions: for log K HSA: binding equilibrium constant from calibration curve (Equation 8) of log k HSA; for fraction unbound: human, pH 7.4, % plasma–protein binding converted from log K HSA (Equation 10), read-out: %PPB HSA (converted); for log k HSA: retention on HSA column, 50 mM ammonium acetate pH 7.4 / propan-2-ol 85/15 (v/v)
T1 construct: purchased Chiralpac
T1 sequence (P02768 25-609): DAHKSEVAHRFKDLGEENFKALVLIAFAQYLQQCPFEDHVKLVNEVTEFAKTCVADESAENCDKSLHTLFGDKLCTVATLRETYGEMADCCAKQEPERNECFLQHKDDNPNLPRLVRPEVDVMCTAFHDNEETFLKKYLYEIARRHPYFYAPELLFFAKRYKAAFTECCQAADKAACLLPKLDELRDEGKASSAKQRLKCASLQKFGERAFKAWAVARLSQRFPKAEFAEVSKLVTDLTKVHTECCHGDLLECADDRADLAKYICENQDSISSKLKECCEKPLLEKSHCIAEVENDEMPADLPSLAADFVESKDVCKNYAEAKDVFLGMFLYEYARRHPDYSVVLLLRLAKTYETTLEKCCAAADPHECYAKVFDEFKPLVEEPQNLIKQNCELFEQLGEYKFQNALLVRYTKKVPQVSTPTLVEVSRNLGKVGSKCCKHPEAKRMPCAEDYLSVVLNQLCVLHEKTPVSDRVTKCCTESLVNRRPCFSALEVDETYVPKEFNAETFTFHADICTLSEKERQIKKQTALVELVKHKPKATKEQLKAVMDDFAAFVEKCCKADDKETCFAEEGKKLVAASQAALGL
Method: (§3) Measurements on HSA and AGP immobilized protein columns were carried out with […] isopropanol content in the aqueous mobile phase.
(§4) The standard calibration curve was used to predict log K values (K—binding equilibrium constant) of investigated compounds to HSA and AGP. Next, the log K values were converted into a percentage of plasma–protein binding (%PPB) of the compounds (Table 2). […] It is the lowest for compound 16 with -NO2 substituent, unsubstituted compound 1, and fluorine derivatives 2 and 9. In a group of […] derivatives in the same position of the phenyl ring, the %PPB to AGP increases with the increase in the atomic weight of the halogen atom and the lipophilicity of the molecule.
as §2
(§5) A human serum albumin (HSA) immobilized on the 5 µm silica gel column 100 × 3 mm (Chiralpac) and an α1-acid glycoprotein (AGP) immobilized on the 5 µm silica gel column 100 × 4 mm (Chiralpac) were used. The compounds were dissolved at 0.5 mg/mL concentration in 50% propan-2-ol and ammonium acetate solution (pH = 7.4) mixtures for HSA measurements. The mobile phase was composed of 50 mM ammonium acetate solution (pH = 7.4) and propan-2-ol at 85/15 (v/v) for AGP, respectively. The flow of mobile phases was 0.5 mL×min^−1. Log k values for the selected mobile phase were determined for all studied compounds and standard substances. The % protein plasma binding (% PPB) values were calculated from the calibration curve according to Valko et al..
(§6) Calibration of the protein columns: The column performance check and the calibration check were performed before measurements. The racemic mixture of warfarin was used for their performance evaluation. The following calibration set of drugs was applied: bromazepam, carbamazepine, diclofenac, nicardipine, nizatidine, piroxicam for HSA and bromazepam, chlorpromazine, imipramine, nicardipine, nizatidine, propranolol, and warfarin for AGP. The analytical standards were purchased from Sigma Aldrich Steinhen, Steinheim am Albuch, Germany). The drugs were dissolved at 0.5 mg/mL concentration in 50% propan-2-ol and ammonium acetate solution mixtures (pH = 7.4). The obtained log k values from HPLC were plotted against the log K values (K—binding equilibrium constant, log K—linearized PPB) based on the literature data for plasma–protein binding (%, PPB). The following relationships were obtained: log KHSA = 0.2513 (±0.0984) + 1.0525 (±0.1171) log k HSA(8) n=6, R=0.9761, R^2 = 0.9528, Radj2 = 0.9410, s = 0.1948 log KAGP = 0.1733 (±0.0574) + 0.8902 (±0.0787) log k AGP(9) n=7, R=0.9810, R^2 = 0.9623, Radj2 = 0.9548, s = 0.1113
(§7) Log K values were converted into %PPB using the following equation [15]:(10) %PPB=101×10^logK/1+10^logK

[4] = test system: α1-acid glycoprotein (AGP); test: HPLC on immobilized AGP column, affinity and % plasma–protein binding; type: in vitro ADME, human; conditions: for log K AGP: binding equilibrium constant from calibration curve (Equation 9) of log k AGP; for fraction unbound: human, pH 7.4, % plasma–protein binding converted from log K AGP (Equation 10), read-out: %PPB AGP (converted); for log k AGP: retention on AGP column, 50 mM ammonium acetate pH 7.4 / propan-2-ol 85/15 (v/v)
Method: as §3, §4, §2, §5, §6, §7

[5] = set-up: method as in Kozyra et al. [31]; conditions: MeOH/20 mM acetate buffer, pH 7.4, ref Kozyra et al. [31], cited from earlier work; for log kw C-18: intercept of Soczewiński–Wachtmeister equation (water as mobile phase); for -S C-18: slope of Soczewiński–Wachtmeister equation

SMILES	Log k Chol ([1]; MeOH 0.45 v/v in mobile phase)	Log k Chol ([1]; MeOH 0.50 v/v in mobile phase)	Log k Chol ([1]; MeOH 0.60 v/v in mobile phase)	Log k Chol ([1]; MeOH 0.80 v/v in mobile phase)	log kw Chol [1]	-S Chol [1]	Log k IAM ([2]; ACN 0.15 v/v in mobile phase)	Log k IAM ([2]; ACN 0.20 v/v in mobile phase)	Log k IAM ([2]; ACN 0.25 v/v in mobile phase)	Log k IAM ([2]; ACN 0.30 v/v in mobile phase)	Log k IAM ([2]; ACN 0.35 v/v in mobile phase)	log kw IAM [2]	-S IAM [2]	log K HSA [3]	log k HSA [3]	log K AGP [4]	fraction unbound [4]	log k AGP [4]	log kw C-18 [5]	-S C-18 [5]	also measured
O=C(COc1ccccc1)NNC(=S)Nc1ccccc1 [Compound 1]	0.440	0.110	-0.157	-1.006	2.2209	4.0307	0.284	0.085	-0.142	-0.518	-0.490	1.0288	4.4559	1.0986	0.8050	0.4018	0.277	0.2567	1.7866	3.7611	Log k Chol ([1]; MeOH 0.30 v/v in mobile phase): 0.979; Log k Chol ([1]; MeOH 0.35 v/v in mobile phase): 0.857; Log k Chol ([1]; MeOH 0.40 v/v in mobile phase): 0.620; Log k IAM ([2]; ACN 0.05 v/v in mobile phase): 0.999; Log k IAM ([2]; ACN 0.10 v/v in mobile phase): 0.548; Log k IAM ([2]; ACN 0.40 v/v in mobile phase): -0.556; fraction unbound [3]: 0.065
O=C(COc1ccccc1)NNC(=S)Nc1ccc(F)cc1 [Compound 9]	0.523	0.179	-0.078	-0.997	2.4029	4.2398	0.336	0.088	-0.150	-0.484	-0.467	1.1652	5.1370	1.2852	0.9823	0.3891	0.283	0.2424	2.1145	4.2984	Log k Chol ([1]; MeOH 0.30 v/v in mobile phase): 1.111; Log k Chol ([1]; MeOH 0.35 v/v in mobile phase): 0.970; Log k Chol ([1]; MeOH 0.40 v/v in mobile phase): 0.696; Log k IAM ([2]; ACN 0.05 v/v in mobile phase): 1.054; Log k IAM ([2]; ACN 0.10 v/v in mobile phase): 0.588; fraction unbound [3]: 0.04
O=C(COc1ccccc1)NNC(=S)Nc1cc(Cl)ccc1Cl [Compound 14]	1.095	0.716	0.574	-0.783	3.4243	5.1337	1.494	1.133	0.710	0.154	-0.027	2.6121	7.6211	2.2183	1.8689	0.8829	0.107	0.7971	3.7050	5.6376	Log k Chol ([1]; MeOH 0.70 v/v in mobile phase): -0.138; Log k IAM ([2]; ACN 0.40 v/v in mobile phase): -0.366
